According to ChEMBL document CHEMBL4007394, “Type I DNA Topoisomerases” (J Med Chem, 2017):

Legend:
[1] = biological target: Bifunctional 3'-5' exonuclease/ATP-dependent helicase WRN (Homo sapiens, UniProt Q14191); experiment: Inhibition of recombinant WRN (unknown origin) helicase activity expressed in baculovirus expression system using forked duplex DNA as substrate after 15 mins by polyacrylamide gel electrophoresis
[2] = Inhibition of recombinant Streptococcus pneumoniae R6 topoisomerase-1 expressed in Escherichia coli assessed as reduction in enzyme-catalyzed relaxation of supercoiled pBR322 DNA preincubated for 10 mins by ethidium bromide staining based electrophoresis

Bifunctional 3'-5' exonuclease/ATP-dependent helicase WRN, sequence (Q14191 whole entry): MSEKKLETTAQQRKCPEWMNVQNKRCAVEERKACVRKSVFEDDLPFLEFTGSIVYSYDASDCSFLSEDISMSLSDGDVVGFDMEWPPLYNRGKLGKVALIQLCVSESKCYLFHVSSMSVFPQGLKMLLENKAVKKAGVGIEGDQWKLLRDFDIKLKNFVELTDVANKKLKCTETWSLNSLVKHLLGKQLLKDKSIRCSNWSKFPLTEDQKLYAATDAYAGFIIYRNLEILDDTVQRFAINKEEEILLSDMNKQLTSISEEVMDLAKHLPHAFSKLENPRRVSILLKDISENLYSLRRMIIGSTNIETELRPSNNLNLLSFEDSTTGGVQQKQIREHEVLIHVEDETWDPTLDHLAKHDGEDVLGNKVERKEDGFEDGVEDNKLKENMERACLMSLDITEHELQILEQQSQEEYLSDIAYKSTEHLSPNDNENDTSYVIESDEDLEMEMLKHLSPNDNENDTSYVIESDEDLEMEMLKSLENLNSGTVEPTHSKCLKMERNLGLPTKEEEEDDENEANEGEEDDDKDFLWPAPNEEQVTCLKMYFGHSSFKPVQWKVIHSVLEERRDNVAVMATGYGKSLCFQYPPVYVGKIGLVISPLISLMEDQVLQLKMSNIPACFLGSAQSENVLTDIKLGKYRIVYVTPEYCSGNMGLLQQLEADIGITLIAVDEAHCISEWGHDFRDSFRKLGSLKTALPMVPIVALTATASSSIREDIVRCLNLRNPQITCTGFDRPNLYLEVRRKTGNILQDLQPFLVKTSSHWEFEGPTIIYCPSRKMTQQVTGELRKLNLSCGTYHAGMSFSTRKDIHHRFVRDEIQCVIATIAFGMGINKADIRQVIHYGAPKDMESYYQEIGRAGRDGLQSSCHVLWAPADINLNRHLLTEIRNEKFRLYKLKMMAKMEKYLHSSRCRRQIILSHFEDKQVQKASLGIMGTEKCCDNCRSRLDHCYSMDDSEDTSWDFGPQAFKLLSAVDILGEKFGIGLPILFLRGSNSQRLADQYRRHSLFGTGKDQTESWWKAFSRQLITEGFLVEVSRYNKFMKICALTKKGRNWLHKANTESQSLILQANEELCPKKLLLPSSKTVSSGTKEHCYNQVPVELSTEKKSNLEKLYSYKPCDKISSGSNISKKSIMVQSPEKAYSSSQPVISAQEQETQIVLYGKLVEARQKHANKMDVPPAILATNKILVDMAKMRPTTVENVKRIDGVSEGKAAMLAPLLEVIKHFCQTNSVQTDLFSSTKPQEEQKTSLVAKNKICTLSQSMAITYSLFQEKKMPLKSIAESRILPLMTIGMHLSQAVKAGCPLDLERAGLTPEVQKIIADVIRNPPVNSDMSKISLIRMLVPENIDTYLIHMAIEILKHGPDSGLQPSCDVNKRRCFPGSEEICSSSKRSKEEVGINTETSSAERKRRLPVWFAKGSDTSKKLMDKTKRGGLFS

CCC(=O)OCN1C(=O)C=CC1=O
IC50 [1]: 3 µM

CNCCc1cc2c(c3c1ccc1cc4c(cc13)OCO4)OCO2
IC50 [2]: 17 µM
